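A five-concentration, 48-hour dose response in 96-well plates underlies each endpoint, interpolated linearly between surrounding concentrations. At the GI50, growth is halved. TGI: total growth inhibition.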
What was measured:
Test in all cases: NCI anticancer screen, dose series, 48 h
HCC-2998 colon = tested on: HCC-2998 colon
RPMI-8226 leukemia = tested on: RPMI-8226 leukemia
UACC-257 melanoma = tested on: UACC-257 melanoma
A498 renal = tested on: A498 renal
SK-MEL-28 melanoma = tested on: SK-MEL-28 melanoma
SK-MEL-5 melanoma = tested on: SK-MEL-5 melanoma
MDA-MB-231 breast = tested on: MDA-MB-231 breast
KM12 colon = tested on: KM12 colon
OVCAR-5 ovarian = tested on: OVCAR-5 ovarian
SK-OV-3 ovarian = tested on: SK-OV-3 ovarian
CAKI-1 renal = tested on: CAKI-1 renal
HCT-15 colon = tested on: HCT-15 colon
MDA-MB-435 = tested on: MDA-MB-435
NCI-H226 lung = tested on: NCI-H226 lung
HT29 colon = tested on: HT29 colon
NCI/ADR-RES ovarian = tested on: NCI/ADR-RES ovarian
UACC-62 melanoma = tested on: UACC-62 melanoma
SF-539 CNS = tested on: SF-539 CNS
UO-31 renal = tested on: UO-31 renal
ACHN renal = tested on: ACHN renal
SK-MEL-2 melanoma = tested on: SK-MEL-2 melanoma
DU-145 prostate = tested on: DU-145 prostate
SF-295 CNS = tested on: SF-295 CNS
K-562 leukemia = tested on: K-562 leukemia
TK-10 renal = tested on: TK-10 renal
CCRF-CEM leukemia = tested on: CCRF-CEM leukemia
SN12C renal = tested on: SN12C renal
MALME-3M melanoma = tested on: MALME-3M melanoma
RXF 393 renal = tested on: RXF 393 renal
COLO 205 colon = tested on: COLO 205 colon
SNB-75 CNS = tested on: SNB-75 CNS
OVCAR-4 ovarian = tested on: OVCAR-4 ovarian
HS 578T breast = tested on: HS 578T breast
MCF7 breast = tested on: MCF7 breast
U251 CNS = tested on: U251 CNS
NCI-H460 lung = tested on: NCI-H460 lung
IGROV1 ovarian = tested on: IGROV1 ovarian
LOX IMVI melanoma = tested on: LOX IMVI melanoma
HOP-62 NSCLC = tested on: HOP-62 NSCLC
EKVX NSCLC = tested on: EKVX NSCLC
HCT-116 colon = tested on: HCT-116 colon
MOLT-4 leukemia = tested on: MOLT-4 leukemia
SNB-19 CNS = tested on: SNB-19 CNS
PC-3 prostate = tested on: PC-3 prostate
NCI-H23 lung = tested on: NCI-H23 lung
HL-60(TB) leukemia = tested on: HL-60(TB) leukemia
786-0 renal = tested on: 786-0 renal
SF-268 CNS = tested on: SF-268 CNS
T-47D breast = tested on: T-47D breast
SR leukemia = tested on: SR leukemia
M14 melanoma = tested on: M14 melanoma
A549 NSCLC = tested on: A549 NSCLC
OVCAR-8 ovarian = tested on: OVCAR-8 ovarian
BT-549 breast = tested on: BT-549 breast
SW-620 colon = tested on: SW-620 colon
NCI-H522 lung = tested on: NCI-H522 lung

Nc1cc(-c2c[nH]c3ccc(Br)cc23)nc2cc(-c3c[nH]c4ccc(Br)cc34)nn12
GI50 (HCC-2998 colon): 1800 nM
TGI (HCC-2998 colon): 3340 nM
GI50 (RPMI-8226 leukemia): 3170 nM
TGI (RPMI-8226 leukemia): > 100000 nM
GI50 (UACC-257 melanoma): 1630 nM
TGI (UACC-257 melanoma): 3200 nM
GI50 (A498 renal): 1570 nM
TGI (A498 renal): 4070 nM
GI50 (SK-MEL-28 melanoma): 1620 nM
TGI (SK-MEL-28 melanoma): 3080 nM
GI50 (SK-MEL-5 melanoma): 1700 nM
TGI (SK-MEL-5 melanoma): 3180 nM
GI50 (MDA-MB-231 breast): 1890 nM
TGI (MDA-MB-231 breast): 3790 nM
GI50 (KM12 colon): 1480 nM
TGI (KM12 colon): 2960 nM
GI50 (OVCAR-5 ovarian): 1530 nM
TGI (OVCAR-5 ovarian): 3110 nM
GI50 (SK-OV-3 ovarian): 1710 nM
TGI (SK-OV-3 ovarian): 3440 nM
GI50 (CAKI-1 renal): 1430 nM
TGI (CAKI-1 renal): 3150 nM
GI50 (HCT-15 colon): 1360 nM
TGI (HCT-15 colon): 3180 nM
GI50 (MDA-MB-435): 1710 nM
TGI (MDA-MB-435): 3250 nM
GI50 (NCI-H226 lung): 2140 nM
TGI (NCI-H226 lung): 6110 nM
GI50 (HT29 colon): 1710 nM
TGI (HT29 colon): 3150 nM
GI50 (NCI/ADR-RES ovarian): 2500 nM
TGI (NCI/ADR-RES ovarian): 6140 nM
GI50 (UACC-62 melanoma): 1480 nM
TGI (UACC-62 melanoma): 3050 nM
GI50 (SF-539 CNS): 1460 nM
TGI (SF-539 CNS): 2920 nM
GI50 (UO-31 renal): 1470 nM
TGI (UO-31 renal): 2790 nM
GI50 (ACHN renal): 1560 nM
TGI (ACHN renal): 2960 nM
GI50 (SK-MEL-2 melanoma): 1670 nM
TGI (SK-MEL-2 melanoma): 3270 nM
GI50 (DU-145 prostate): 1720 nM
TGI (DU-145 prostate): 3230 nM
GI50 (SF-295 CNS): 1890 nM
TGI (SF-295 CNS): 3570 nM
GI50 (K-562 leukemia): 2810 nM
TGI (K-562 leukemia): > 100000 nM
GI50 (TK-10 renal): 1800 nM
TGI (TK-10 renal): 3390 nM
GI50 (CCRF-CEM leukemia): 3210 nM
TGI (CCRF-CEM leukemia): > 100000 nM
GI50 (SN12C renal): 1840 nM
TGI (SN12C renal): 3640 nM
GI50 (MALME-3M melanoma): 1930 nM
TGI (MALME-3M melanoma): 4080 nM
GI50 (RXF 393 renal): 1830 nM
TGI (RXF 393 renal): 3540 nM
GI50 (COLO 205 colon): 1760 nM
TGI (COLO 205 colon): 3230 nM
GI50 (SNB-75 CNS): 1170 nM
TGI (SNB-75 CNS): 3770 nM
GI50 (OVCAR-4 ovarian): 2030 nM
TGI (OVCAR-4 ovarian): 5250 nM
GI50 (HS 578T breast): 2300 nM
TGI (HS 578T breast): 7540 nM

O=C(N/N=C\c1ccc(Cl)cc1)c1ccc2nc(-c3ccc(Br)cc3)[nH]c2c1
GI50 (MCF7 breast): 1010 nM
TGI (MCF7 breast): 2460 nM
GI50 (HCC-2998 colon): 1830 nM
TGI (HCC-2998 colon): 3610 nM
GI50 (RPMI-8226 leukemia): 1600 nM
TGI (RPMI-8226 leukemia): 3890 nM
GI50 (U251 CNS): 1780 nM
TGI (U251 CNS): 3180 nM
GI50 (UACC-257 melanoma): 1600 nM
TGI (UACC-257 melanoma): 3100 nM
GI50 (NCI-H460 lung): 601 nM
TGI (NCI-H460 lung): 1940 nM
GI50 (A498 renal): 1670 nM
TGI (A498 renal): 3680 nM
GI50 (SK-MEL-28 melanoma): 1730 nM
TGI (SK-MEL-28 melanoma): 3260 nM
GI50 (IGROV1 ovarian): 1580 nM
TGI (IGROV1 ovarian): 3410 nM
GI50 (SK-MEL-5 melanoma): 1850 nM
TGI (SK-MEL-5 melanoma): 3630 nM
GI50 (MDA-MB-231 breast): 1900 nM
TGI (MDA-MB-231 breast): 3890 nM
GI50 (LOX IMVI melanoma): 1490 nM
TGI (LOX IMVI melanoma): 3090 nM
GI50 (HOP-62 NSCLC): 1640 nM
TGI (HOP-62 NSCLC): 3200 nM
GI50 (EKVX NSCLC): 2030 nM
TGI (EKVX NSCLC): 4280 nM
GI50 (KM12 colon): 1860 nM
TGI (KM12 colon): 4160 nM
GI50 (OVCAR-5 ovarian): 1990 nM
TGI (OVCAR-5 ovarian): 4260 nM
GI50 (SK-OV-3 ovarian): 1510 nM
TGI (SK-OV-3 ovarian): 3870 nM
GI50 (HCT-116 colon): 1490 nM
TGI (HCT-116 colon): 2990 nM
GI50 (CAKI-1 renal): 1600 nM
TGI (CAKI-1 renal): 3100 nM
GI50 (MOLT-4 leukemia): 1620 nM
TGI (MOLT-4 leukemia): 4290 nM
GI50 (HCT-15 colon): 1520 nM
TGI (HCT-15 colon): 3330 nM
GI50 (MDA-MB-435): 1520 nM
TGI (MDA-MB-435): 3150 nM
GI50 (NCI-H226 lung): 4960 nM
TGI (NCI-H226 lung): 24000 nM
GI50 (SNB-19 CNS): 2110 nM
TGI (SNB-19 CNS): 4910 nM
GI50 (PC-3 prostate): 1580 nM
TGI (PC-3 prostate): 2990 nM
GI50 (NCI-H23 lung): 1860 nM
TGI (NCI-H23 lung): 4020 nM
GI50 (HT29 colon): 1040 nM
TGI (HT29 colon): 2380 nM
GI50 (NCI/ADR-RES ovarian): 2440 nM
TGI (NCI/ADR-RES ovarian): 8010 nM
GI50 (UACC-62 melanoma): 1850 nM
TGI (UACC-62 melanoma): 3850 nM
GI50 (SF-539 CNS): 1720 nM
TGI (SF-539 CNS): 3240 nM
GI50 (UO-31 renal): 1450 nM
TGI (UO-31 renal): 2860 nM
GI50 (HL-60(TB) leukemia): 2040 nM
TGI (HL-60(TB) leukemia): 5030 nM
GI50 (ACHN renal): 1750 nM
TGI (ACHN renal): 3170 nM
GI50 (DU-145 prostate): 1980 nM
TGI (DU-145 prostate): 4180 nM
GI50 (SF-295 CNS): 2070 nM
TGI (SF-295 CNS): 4590 nM
GI50 (786-0 renal): 1760 nM
TGI (786-0 renal): 3260 nM
GI50 (TK-10 renal): 2070 nM
TGI (TK-10 renal): 3890 nM
GI50 (CCRF-CEM leukemia): 1900 nM
TGI (CCRF-CEM leukemia): 4730 nM
GI50 (SN12C renal): 1760 nM
TGI (SN12C renal): 3490 nM
GI50 (SF-268 CNS): 2560 nM
TGI (SF-268 CNS): 6870 nM
GI50 (MALME-3M melanoma): 1680 nM
TGI (MALME-3M melanoma): 3220 nM
GI50 (T-47D breast): 1580 nM
TGI (T-47D breast): 3250 nM
GI50 (SR leukemia): 895 nM
TGI (SR leukemia): 3390 nM
GI50 (RXF 393 renal): 1500 nM
TGI (RXF 393 renal): 3180 nM
GI50 (COLO 205 colon): 1430 nM
TGI (COLO 205 colon): 2860 nM
GI50 (SNB-75 CNS): 1830 nM
TGI (SNB-75 CNS): 4010 nM
GI50 (M14 melanoma): 1920 nM
TGI (M14 melanoma): 3930 nM
GI50 (OVCAR-4 ovarian): 2070 nM
TGI (OVCAR-4 ovarian): 4830 nM
GI50 (A549 NSCLC): 1750 nM
TGI (A549 NSCLC): 3300 nM
GI50 (OVCAR-8 ovarian): 1490 nM
TGI (OVCAR-8 ovarian): 2880 nM
GI50 (HS 578T breast): 2190 nM
TGI (HS 578T breast): 5270 nM
GI50 (BT-549 breast): 1870 nM
TGI (BT-549 breast): 5540 nM
GI50 (SW-620 colon): 1600 nM
TGI (SW-620 colon): 3260 nM
GI50 (NCI-H522 lung): 1630 nM
TGI (NCI-H522 lung): 3380 nM
